Laboratory results as given in patent US20230091336A1, “CANNABINOID COMPOSITIONS” (priority 2020, published 2023).
Like-named read-outs stand apart in the source and are kept apart here.

What was measured:
[1] = test system: SOCE in U937 human monocytes; assay: SOCE Fura-2 bioassay in U937 cells; conditions: Table 5
Experimental: (§1) Briefly, SOCE inhibition experiments were performed as described in Example 8, using each of the hemp extracts listed below and in Tables 6A and 6B at six concentrations each in each of the five cell types listed above to obtain dose response curves, as shown in FIGS. 11A-11SS. […] All data are averages of three independent runs±SEM. […] Hemp extracts used in FIGS. 11A-11SS are: Sour Space Candy (SSC), Hawaiian Haze (HH), Special Sauce (SS), Suver Haze (SH), White CBG (WCBG), Elektra (ELEK), Cherry Wine (CW), Lifter (LIF), Grape Soda (GS).

[2] = test system: SOCE in RBL-2H3 rat mast cells; assay: SOCE Fura-2 bioassay in RBL-2H3 cells; conditions: Table 5
Experimental: as §1

[3] = test system: SOCE in THP-1 human monocytes; assay: SOCE Fura-2 bioassay in THP-1 cells; conditions: for combinatory effect on SOCE inhibition when paired with CBGA (isobolographic analysis): pairs expected to inhibit 50%, FIGS. 10U-10Y
SOCE in Jurkat T cells = assay: SOCE Fura-2 bioassay in Jurkat cells; format: cell-based, human; conditions: for combinatory effect on SOCE inhibition when paired with CBGA (isobolographic analysis): pairs expected to inhibit 50%, FIGS. 10A-10T
[4] = test system: SOCE in HEK-293 human embryonic kidney cells; assay: SOCE Fura-2 bioassay in HEK293 cells; format: cell-based; conditions: for IC50: Table 5
[5] = test system: SOCE in Luva human mast cells; assay: SOCE Fura-2 bioassay in Luva cells; conditions: Table 5
Experimental: as §1

[6] = Homo sapiens, U-937, read-out: IC50 SOCE, purified cannabinoids, U937
[7] = Rattus norvegicus, RBL-2H3, read-out: IC50 SOCE, purified cannabinoids, RBL-2H3
[8] = Homo sapiens, THP-1, read-out: IC50 SOCE, purified cannabinoids
[9] = Homo sapiens, read-out: IC50 SOCE, purified cannabinoids, Jurkat, Table 5
[10] = Homo sapiens, HEK293, read-out: IC50 SOCE, purified cannabinoids, HEK-293
[11] = Homo sapiens, Mast cell, read-out: IC50 SOCE, purified cannabinoids, Luva

Q: Which results are given for `CCCCCc1cc(OC)c2c(c1)OC(C)(C)c1ccc(C)cc1-2` [CBNM, 1-methoxy-6,6,9-trimethyl-3-pentyl-6H-benzo[c]chromene]?
A: IC50 [1, 6]: > 50 µM; IC50 [2, 7]: > 50 µM; IC50 [3, 8]: > 50 µM; IC50 (SOCE in Jurkat T cells; [9]): > 50 µM; IC50 [4, 10]: > 50 µM; IC50 [5, 11]: > 50 µM

Q: What does the source list for `CCCCCc1cc2c(c(O)c1C(=O)O)-c1cc(C)ccc1C(C)(C)O2` [CBNA, 1-hydroxy-6,6,9-trimethyl-3-pentyl-6H-benzo[c]chromene-2-carboxylic acid]?
A: IC50 [1, 6]: 19.2 µM; IC50 [2, 7]: 22.5 µM; IC50 [3, 8]: 7.25 µM; combinatory effect on SOCE inhibition when paired with CBGA (isobolographic analysis) ([3]; THP-1): sub-additive; IC50 (SOCE in Jurkat T cells; [9]): 0.99 µM; combinatory effect on SOCE inhibition when paired with CBGA (isobolographic analysis) (SOCE in Jurkat T cells): Simple additive; IC50 [4, 10]: 29.5 µM; IC50 [5, 11]: > 50 µM

Q: What does the source list for `CCCCCc1cc(O)c2c(c1)O[C@]1(C)CC[C@@H]3C1[C@@H]2C3(C)C` (stereo partly drawn) [CBL, (1aS,1a1R,3aR,8bR)-1,1,3a-trimethyl-6-pentyl-1a,1a1,2,3,3a,8b-hexahydro-1H-4-oxabenzo[f]cyclobuta[cd]inden-8-ol]?
A: IC50 [1, 6]: > 50 µM; IC50 [2, 7]: > 50 µM; IC50 [3, 8]: > 50 µM; IC50 (SOCE in Jurkat T cells; [9]): > 50 µM; combinatory effect on SOCE inhibition when paired with CBGA (isobolographic analysis) (SOCE in Jurkat T cells): Simple additive; IC50 [4, 10]: > 50 µM; IC50 [5, 11]: > 50 µM

Q: How did the IC50 [1, 6] turn out when `CCCCCc1cc2c(c(O)c1C(=O)O)C=C[C@@](C)(CCC=C(C)C)O2` [CBCA, (R)-5-hydroxy-2-methyl-2-(4-methylpent-3-en-1-yl)-7-pentyl-2H-chromene-6-carboxylic acid] was run?
A: Its IC50 is > 50 µM.

Q: What about the IC50 [2, 7] of the same compound?
A: The IC50 was > 50 µM.

Q: And the IC50 [3, 8]?
A: The IC50 was 29.1 µM.

Q: And the IC50 (SOCE in Jurkat T cells; [9])?
A: Its IC50 is 1.13 µM.

Q: And the “combinatory effect on SOCE inhibition when paired with CBGA (isobolographic analysis)” value (SOCE in Jurkat T cells)?
A: Its value is “Simple additive”.

Q: And the IC50 [4, 10]?
A: Its IC50 is > 50 µM.

Q: And the IC50 [5, 11]?
A: Its IC50 is > 50 µM.

Q: Which results are given for `CCCc1cc(O)c(C/C=C(\C)CCC=C(C)C)c(O)c1C(=O)O` [CBGVA, (E)-3-(3,7-dimethylocta-2,6-dien-1-yl)-2,4-dihydroxy-6-propylbenzoic acid]?
A: IC50 [1, 6]: 2.86 µM; IC50 [2, 7]: 4.15 µM; IC50 [3, 8]: 2.6 µM; combinatory effect on SOCE inhibition when paired with CBGA (isobolographic analysis) ([3]; THP-1): sub-additive; IC50 (SOCE in Jurkat T cells; [9]): 1.15 µM; combinatory effect on SOCE inhibition when paired with CBGA (isobolographic analysis) (SOCE in Jurkat T cells): Simple additive; IC50 [4, 10]: 2.11 µM; IC50 [5, 11]: 2.53 µM

Q: Which results are given for `C=C(C)[C@@H]1CCC(C)=C[C@H]1c1c(O)cc(CCC)cc1O` [CBDV, (1′R,2′R)-5′-methyl-2′-(prop-1-en-2-yl)-4-propyl-1′,2′,3′,4′-tetrahydro-[1,1′-biphenyl]-2,6-diol]?
A: IC50 [1, 6]: 17.5 µM; IC50 [2, 7]: 30.2 µM; IC50 [3, 8]: > 50 µM; IC50 (SOCE in Jurkat T cells; [9]): 6 µM; combinatory effect on SOCE inhibition when paired with CBGA (isobolographic analysis) (SOCE in Jurkat T cells): sub-additive; inhibitory effect in immune cells compared with non-immune HEK293 cells ([4]; 10 μM, HEK293 (FIG. 8) vs immune cells): selective; IC50 [4, 10]: 17.8 µM; IC50 [5, 11]: 0.17 µM

Q: Which IC50 ([1]; read-out: IC50 SOCE, purified cannabinoids, U937) does the source give for `CCCCCc1cc(O)c2c(c1)OC(C)(CCC=C(C)C)C=C2` (stereo not shown) [CBC, 2-methyl-2-(4-methylpent-3-en-1-yl)-7-pentyl-2H-chromen-5-ol] here?
A: Its IC50 is 40.8 µM.

Q: And the IC50 ([2]; read-out: IC50 SOCE, purified cannabinoids, RBL-2H3)?
A: The IC50 was 31.6 µM.

Q: And the IC50 ([3]; read-out: IC50 SOCE, purified cannabinoids, THP-1, Table 5)?
A: The IC50 was > 50 µM.

Q: What about the IC50 (SOCE in Jurkat T cells; read-out: IC50 SOCE, purified cannabinoids, Table 5) of the same compound?
A: Its IC50 is 13.1 µM.

Q: What about the IC50 ([4]; read-out: IC50 SOCE, purified cannabinoids, HEK-293) of the same compound?
A: Its IC50 is 18.7 µM.

Q: And the IC50 ([5]; read-out: IC50 SOCE, purified cannabinoids, Luva)?
A: Its IC50 is 26.8 µM.

Q: For `CCCCCc1cc(O)c2c(c1)OC(C)(C)[C@@H]1CCC(C)=C[C@@H]21` [Δ9-THC, (6aR,10aR)-6,6,9-trimethyl-3-pentyl-6a,7,8,10a-tetrahydro-6H-benzo[c]chromen-1-ol], which IC50 [1, 6] is on record?
A: The IC50 was > 50 µM.

Q: And the IC50 [2, 7]?
A: Its IC50 is > 50 µM.

Q: And the IC50 [3, 8]?
A: Its IC50 is > 50 µM.

Q: And the “effect on SOCE Ca^2+ signals, pure compounds” value (SOCE in Jurkat T cells; 10 μM, 1 μM thapsigargin, FIG. 7A, 7C)?
A: Its value is “low to no effects”.

Q: And the IC50 (SOCE in Jurkat T cells; [9])?
A: Its IC50 is > 50 µM.

Q: What about the IC50 [4, 10] of the same compound?
A: The IC50 was > 50 µM.

Q: What about the IC50 [5, 11] of the same compound?
A: The IC50 was 0.97 µM.

Q: For `C=C(C)[C@@H]1CCC(C)=C[C@H]1c1c(O)cc(CCC)c(C(=O)O)c1O` [CBDVA, (1′R,2′R)-2,6-dihydroxy-5′-methyl-2′-(prop-1-en-2-yl)-4-propyl-1′,2′,3′,4′-tetrahydro-[1,1′-biphenyl]-3-carboxylic acid], which IC50 [1, 6] is on record?
A: The IC50 was 10.6 µM.

Q: And the IC50 [2, 7]?
A: The IC50 was 23.5 µM.

Q: And the IC50 [3, 8]?
A: The IC50 was 8.45 µM.

Q: And the IC50 (SOCE in Jurkat T cells; [9])?
A: Its IC50 is 11.3 µM.

Q: And the “combinatory effect on SOCE inhibition when paired with CBGA (isobolographic analysis)” value (SOCE in Jurkat T cells)?
A: The value was “sub-additive”.

Q: And the IC50 [4, 10]?
A: Its IC50 is 20.7 µM.

Q: What about the IC50 [5, 11] of the same compound?
A: Its IC50 is 11.3 µM.
